This note sets out measurements from publication PMC8429249 (Journal of medicinal chemistry, 2021).

Like-named read-outs stand apart in the source and are kept apart here.

The target of experiment [1] is RLuc8-KRasG12V / GFP-CRAF RBD interaction in HEK293T cells (Homo sapiens, UniProt P01116, G12V). Kind of experiment: Intracellular Ras-Raf BRET2 assay. The experiment is classed as cell-based. Particulars: 0–15 μM, 20 h. A general note: BRET reads energy transfer from a luciferase to a nearby fluorophore.
For experiment [2], the system named is H358 cells. Put plainly: MTT cell viability assay. The experiment is classed as cell-based, human. Particulars: read-out: MTT EC50, 96 h, 10% FBS, mean ± SD.
Experiment [3] deals with RLuc8-KRasG12D / GFP-CRAF RBD interaction in HEK293T cells (Homo sapiens, UniProt P01116, G12D). Put plainly: Intracellular Ras-Raf BRET2 assay. Type of experiment: cell-based. Particulars: 0–15 μM, 20 h.
Experiment [4] relates to H358 cells. The settings on record: read-out: CellTiter-Glo EC50, 96 h, 10% FBS, mean ± SD.

In the case of ΦOSQΦΠ-K-fArR-J-BBK-NH2 [Peptide B3-4], the “effect on BRET signal (KRasG12V-CRAF RBD)” value in experiment [1] is recorded as “did not decrease the BRET signal”. Moreover, the concentration giving a half-maximal response (EC50) (in general, the concentration giving half of the maximal effect) amounted to 29 ± 6 µM in the experiment on H358 cells [2] and 22 ± 4 µM in the experiment on H358 cells [4]. In addition, the “effect on BRET signal (KRasG12D-CRAF RBD)” value in experiment [3] is given as “did not decrease the BRET signal”.
